Read-outs that look alike come from different tables or passages of the source. Non-standard residues stand in square brackets, D forms with d. No end group written: not given here. pY = N[C@@H](Cc1ccc(OP(=O)(O)O)cc1)C(=O)O
How the values were obtained:
[1] = target: T1, Stat3:Stat3 DNA-binding activity (Mus musculus, UniProt P42227); assay: EMSA of Stat3:Stat3 DNA-binding activity in nuclear extracts; assay type: biochemical; conditions: for Stat3-inhibitory potency on replacing the para-fluorine: EMSA
T1 construct: endogenous in cells; host or cells: NIH3T3/v-Src fibroblasts; EGF-stimulated NIH3T3/hEGFR fibroblasts (nuclear extracts)
T1 sequence (P42227 2-770 limits assumed): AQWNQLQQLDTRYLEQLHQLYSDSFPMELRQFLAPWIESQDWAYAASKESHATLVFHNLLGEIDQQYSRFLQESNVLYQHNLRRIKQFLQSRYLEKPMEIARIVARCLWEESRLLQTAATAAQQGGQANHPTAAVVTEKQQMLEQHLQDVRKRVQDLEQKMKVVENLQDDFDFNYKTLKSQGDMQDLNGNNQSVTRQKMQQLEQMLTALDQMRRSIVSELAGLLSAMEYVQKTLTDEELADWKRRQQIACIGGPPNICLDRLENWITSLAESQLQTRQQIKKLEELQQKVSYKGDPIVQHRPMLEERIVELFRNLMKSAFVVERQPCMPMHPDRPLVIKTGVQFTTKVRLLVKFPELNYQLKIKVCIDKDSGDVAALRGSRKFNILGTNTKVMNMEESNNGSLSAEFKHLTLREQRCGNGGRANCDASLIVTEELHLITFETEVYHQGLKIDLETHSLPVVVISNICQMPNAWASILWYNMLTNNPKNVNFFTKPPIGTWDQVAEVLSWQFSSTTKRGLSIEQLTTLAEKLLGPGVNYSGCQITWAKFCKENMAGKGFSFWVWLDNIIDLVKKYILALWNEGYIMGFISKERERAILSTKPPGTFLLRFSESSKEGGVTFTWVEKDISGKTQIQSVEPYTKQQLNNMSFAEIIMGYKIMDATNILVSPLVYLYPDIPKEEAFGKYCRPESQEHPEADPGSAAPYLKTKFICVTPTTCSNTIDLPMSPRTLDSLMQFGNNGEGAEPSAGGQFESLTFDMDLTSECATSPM
Method: (§1) Details are presented in Supplementary Information, “Methods”. […]
(§2) min, prior to incubation with the radiolabeled probe for 30 min at 30 °C and subjecting to EMSA analysis.
(§3) In another case, the nuclear extract was pre-incubated with the radiolabeled probe for 30 min at 30 °C prior to incubation with increasing concentration of H182 at room temperature for 30 min and subjecting to EMSA analysis. Bands corresponding to Stats DNA- binding activities were scanned and quantified using ImageJ and plotted as a percentage of control (vehicle) against the concentration of the inhibitor, from which the IC50 values were derived .

[2] = target: T2, Stat1:Stat3 DNA-binding activity (Mus musculus, UniProt P42227); assay: EMSA of Stat1:Stat3 DNA-binding activity in nuclear extracts of EGF-stimulated NIH3T3/hEGFR; assay type: biochemical; conditions: Fig. 1C, hSIE probe, 30 min
T2 construct: endogenous in cells; host or cells: EGF-stimulated NIH3T3/hEGFR fibroblasts (nuclear extract)
T2 sequence (P42227 2-770 limits assumed, one chain of several): as the sequence (P42227 2-770 limits assumed) above
Method: as §1, §2, §3

[3] = target: T3, Stat1:Stat1 DNA-binding activity (Mus musculus, UniProt P42225); assay: EMSA of Stat1:Stat1 DNA-binding activity in nuclear extracts of EGF-stimulated NIH3T3/hEGFR; assay type: biochemical; conditions: Fig. 1C, 30 min
T3 construct: endogenous in cells; host or cells: EGF-stimulated NIH3T3/hEGFR fibroblasts (nuclear extract)
T3 sequence (P42225 2-749 limits assumed): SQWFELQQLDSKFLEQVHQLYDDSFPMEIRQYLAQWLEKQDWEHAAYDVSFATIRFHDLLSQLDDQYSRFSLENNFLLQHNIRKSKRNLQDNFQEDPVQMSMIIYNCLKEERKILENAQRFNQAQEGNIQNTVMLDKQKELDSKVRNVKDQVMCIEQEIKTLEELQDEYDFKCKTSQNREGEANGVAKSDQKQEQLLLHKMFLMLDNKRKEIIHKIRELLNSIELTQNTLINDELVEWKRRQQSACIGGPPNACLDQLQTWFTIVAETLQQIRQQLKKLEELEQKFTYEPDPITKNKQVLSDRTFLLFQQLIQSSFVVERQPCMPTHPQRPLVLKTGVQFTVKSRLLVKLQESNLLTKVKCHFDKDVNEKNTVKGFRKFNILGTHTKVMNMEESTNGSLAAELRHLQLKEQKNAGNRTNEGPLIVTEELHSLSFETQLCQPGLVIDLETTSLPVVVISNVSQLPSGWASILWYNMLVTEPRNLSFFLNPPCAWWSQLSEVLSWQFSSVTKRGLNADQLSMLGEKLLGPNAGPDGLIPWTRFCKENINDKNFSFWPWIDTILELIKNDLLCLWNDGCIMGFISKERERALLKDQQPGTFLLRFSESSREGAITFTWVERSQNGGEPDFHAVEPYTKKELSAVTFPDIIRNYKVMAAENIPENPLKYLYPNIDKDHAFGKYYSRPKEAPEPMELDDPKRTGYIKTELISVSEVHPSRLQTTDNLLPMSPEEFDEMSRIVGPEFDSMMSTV
Method: (§4) These studies were carried out as previously described using the ^32P-labeled oligonucleotide probes, hSIE (high affinity sis-inducible element from the c-fos gene, m67 variant, 5^′-[…]) that binds Stat1 and Stat3 [11, 12] and the mammary gland factor element (MGFe) from the bovine β–casein gene promoter (sense strand, 5^′-[…]) that binds Stat5 and Stat1 [11, 12]. Details are presented in Supplementary Information, “Methods”. […]
as §2, §3

[4] = target: Stat5:Stat5 DNA-binding activity; assay: EMSA of Stat5:Stat5 DNA-binding activity in nuclear extracts of EGF-stimulated NIH3T3/hEGFR; assay type: biochemical, mouse; conditions: Fig. 1C, MGFe probe, 30 min
Method: as §4, §2, §3

[5] = tested on: MDA-MB-231 cells; assay: CyQuant viable cell number assay, MDA-MB-231; assay type: cell-based, human
Method: (§5) CyQuant assay was performed to evaluate compounds as previously reported. Details are presented in Supplementary Information, “Methods”. […]
(§6) 1.2.6. Cell viability assays
(§7) CyQuant assay was performed to evaluate compounds as previously reported [1 -3] . Briefly, cells (5 x 10^3 per well, 100 µl) in culture in 96-well plates were treated once with 0 -10 µM concentrations of H120, H105, […]
(§8) concentration of H182 for 6 h and then treated with 0- 100 nM docetaxel or 0-20 µM cisplatin for a total of 72 h. Viable cell numbers were assessed by a CyQuant cell proliferation kit according to the manufacturer’s instructions (Thermo/Life Technologies Corp, Carlsbad, CA). Viable cell numbers were normalized to that of DMSO (control)-treated samples. […]

[6] = tested on: MDA-MB-468 cells; assay: CyQuant viable cell number assay, MDA-MB-468; assay type: cell-based, human; conditions: Homo sapiens, MDA-MB-468, 72 h, read-out: IC50 viable cell numbers, MDA-MB-468
Method: as §5, §6, §7, §8

[7] = tested on: MDA-MB-231 tumor xenografts; assay: Subcutaneous MDA-MB-231 xenografts in athymic nude mice; assay type: in vivo
Method: Mice were housed in specific pathogen-free conditions in the animal facility. All animal experiments were conducted in accordance with the recommendations in the Guide for the Care and Use of Laboratory Animals on a protocol approved by the Institutional Animal Care and Use Committee (IACUC). Subcutaneous xenograft studies were performed as previously reported. Five-week-old female athymic nude mice were purchased from Envigo (Indianapolis, IN) or Charles River (Wilmington, MA) and maintained in the institutional animal facilities approved by the American Association for Accreditation of Laboratory Animal Care. […] Tumor sizes were monitored every 3–4 days, measured with calipers, and converted to tumor volume, V, according to the formula V = 0.52 × a^2 × b, where a, smallest superficial diameter, and b, largest superficial diameter. For each treatment group, the tumor volumes for each set of measurements were statistically analyzed relative to the control (DMSO-treated; 70% DMSO with sterile PBS) group.
Constitutively-active Stat3 promotes primary tumor development and the progression to therapy resistance. We proceeded to evaluate the in vivo antitumor efficacy against tumor growth in both human xenograft and mouse syngeneic models of TNBC. In four separate studies, we tested the efficacy of H182, H278 (HCl salt of H182), and H120. For these xenografts, the human breast cancer, MDA-MB-231 cells were injected subcutaneously into athymic nude mice. When tumors were palpable (80–120 mm^3), mice were grouped so that the mean tumor sizes were identical between groups and treated as follows: A) intraperitoneal (IP) injections of H182 at 10 mg/kg every other day for 33 days; B) oral gavage of H182 every day at 5 mg/kg for 20 days, and then increased to 20 mg/kg for additional 12 days; and C) oral gavage of H120 at 20 mg/kg, daily for 14 days, and then increased to 30 mg/kg, daily for additional 14 days.

[8] = target: SH2 domain of pure recombinant Stat3 (Homo sapiens, UniProt P40763); assay: Stat3 fluorescence polarization (FP) assay; assay type: binding; conditions: 0–10 μM, 5-carboxyfluorescein-GpYLPQTV-NH2 probe
SH2 domain of pure recombinant Stat3, sequence (P40763 whole entry, the tested form may be a part): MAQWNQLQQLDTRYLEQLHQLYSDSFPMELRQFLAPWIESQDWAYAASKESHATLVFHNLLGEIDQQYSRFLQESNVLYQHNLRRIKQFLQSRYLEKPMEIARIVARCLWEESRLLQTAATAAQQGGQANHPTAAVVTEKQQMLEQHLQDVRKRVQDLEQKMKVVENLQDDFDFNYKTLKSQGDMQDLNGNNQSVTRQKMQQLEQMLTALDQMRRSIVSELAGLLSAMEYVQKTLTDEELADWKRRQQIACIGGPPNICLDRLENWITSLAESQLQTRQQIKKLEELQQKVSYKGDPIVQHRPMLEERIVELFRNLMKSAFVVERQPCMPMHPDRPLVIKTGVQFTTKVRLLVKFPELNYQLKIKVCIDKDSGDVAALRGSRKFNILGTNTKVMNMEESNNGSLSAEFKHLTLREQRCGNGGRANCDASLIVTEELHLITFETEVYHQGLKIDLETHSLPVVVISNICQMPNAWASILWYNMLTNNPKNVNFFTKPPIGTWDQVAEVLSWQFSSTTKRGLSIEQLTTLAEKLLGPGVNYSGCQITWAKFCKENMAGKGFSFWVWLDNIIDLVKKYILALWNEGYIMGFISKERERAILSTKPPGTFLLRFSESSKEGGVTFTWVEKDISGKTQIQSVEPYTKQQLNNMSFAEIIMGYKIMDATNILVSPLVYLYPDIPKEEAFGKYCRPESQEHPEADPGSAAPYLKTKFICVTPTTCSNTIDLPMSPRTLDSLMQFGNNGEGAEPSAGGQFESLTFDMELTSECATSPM
Method: Details are presented in Supplementary Information, “Methods”.
The Stat3:azetidine compound interaction was investigated further by focusing on how the compounds might interfere with Stat3 dimerization (Stat3:Stat3), which occurs via pTyr peptide:SH2 domain interaction. […]
confocal microscope (Stellaris 8-STED Super -resolution , Germany) with a 60x oil lens and images were processed by ImageJ software.
1.2.9. Fluorescence polarization assay (FP)
These studies were conducted as previously reported using the labeled phosphopeptide, 5-carboxyfluorescein GpYLPQTV-NH 2 (where pY represents phospho-Tyr) as probe and purified recombinant Stat3, with some modifications. […]
10 µM of unlabeled GpYLPQTV-NH 2 (positive control) or H182 at 30 °C for 30 min in the indicated assay buffer conditions, prior to the addition of the labeled probe at 10 nM final concentration and incubated for 30 min at room temperature, and thereafter reading the FP signal at 10, 30, and 60 min using the SpectraMax ID5 (Molecular Devices, San Jose, CA), with the set gain adjustment at 35 mP. In some cases, the recombinant His-Stat3 was pre-incubated with the unlabeled GpYLPQTV-NH 2 or H182 at 0-10 µM for 10 min or at 0-50 µM for 30 min prior to incubation with the labeled probe, and thereafter reading the FP signal at 10, 30, or 60 min using the SpectraMax ID5, with the set gain adjustment at 35 mP.
1.2.10. […]

[9] = Fig. 1C, extracts of EGF-stimulated NIH3T3/hEGFR, hSIE probe, 30 min, read-out: IC50 Stat3:Stat3
[10] = range over the named compounds and incubation times, read-out: IC50 Stat3 DNA-binding activity in vitro (summary range)
[11] = first Stat1:Stat1 value listed (hSIE probe)
[12] = second Stat1:Stat1 value listed (MGFe probe)
[13] = Homo sapiens, MDA-MB-231, read-out: IC50 viable cell numbers, MDA-MB-231, CyQuant, 72 h
[14] = Table 1, replacement of p-fluorine (R1), read-out: EMSA IC50

| Compound | Stat3-inhibitory potency on replacing the para-fluorine [1] | IC50 [1, 14] [nM] | IC50 [1, 9] [nM] | IC50 [1, 10] [nM] | IC50 [2] [µM] | IC50 [3, 11] [µM] | IC50 [3, 12] [µM] | IC50 [4] [µM] | IC50 [5, 13] [µM] | IC50 [6] [µM] | also measured |
| --- | --- | --- | --- | --- | --- | --- | --- | --- | --- | --- | --- |
| O=C(NO)c1ccc(N(Cc2ccc(C3CCCCC3)cc2)C(=O)[C@H]2CCN2S(=O)(=O)c2c(F)c(F)c(F)c(F)c2F)c(F)c1 [Compound H105] |  |  | 1800 | 1750 to 2070 | 8.3 | 15.8 | > 20 | 20 | 2.6 to 3.6 | 2.6 to 3.6 |  |
| O=C(NO)c1ccc(N(Cc2ccc(C3CCOCC3)cc2)C(=O)[C@H]2CCN2S(=O)(=O)c2c(F)c(F)c(F)c(F)c2F)cc1O [Compound H120] |  |  | 2100 | 1750 to 2070 | 7.2 | > 20 | > 20 | > 20 | 2.6 to 3.6 | 2.6 to 3.6 | Tumor growth, MDA-MB-231 xenografts ([7]; H120 oral gavage daily 20 mg/kg for 14 days, then 30 mg/kg for 14 days): significant tumor growth inhibition; Body weights and obvious signs of toxicity ([7]; the three xenograft studies): No notable changes |
| GpYLPQTV-NH2 (G[pY]LPQTV-NH2) [reference compound] |  |  |  |  |  |  |  |  |  |  | Effect on FP signal [8]: dose-dependent reduction of the FP signal down to the baseline of 45–50 mP |
| N.N.[Cl][Pt][Cl] [cisplatin, reference compound] |  |  |  |  |  |  |  |  |  |  | IC50 ([5]; MDA-MB-231, DMSO or 1 μM H182 pre-treatment 6 h, then docetaxel or cisplatin, total 72 h, read-out: IC50 of chemotherapeutic agent alone or with H182): 7 µM |

Second part, led by results:

| Stat3-inhibitory potency on replacing the para-fluorine [1] | IC50 [1, 14] [nM] | Compound | IC50 [1, 9] [nM] | IC50 [1, 10] [nM] | IC50 [2] [µM] | IC50 [3, 11] [µM] | IC50 [3, 12] [µM] | IC50 [4] [µM] | IC50 [5, 13] [µM] | IC50 [6] [µM] | also measured |
| --- | --- | --- | --- | --- | --- | --- | --- | --- | --- | --- | --- |
| loss of Stat3-inhibitory potency | > 30000 | O=C(O)c1ccc(N(Cc2cnc(C3CCCCC3)cn2)C(=O)[C@H]2CCN2S(=O)(=O)c2c(F)c(F)cc(F)c2F)cc1O [Compound H176] |  |  |  |  |  |  |  |  |  |
| loss of Stat3-inhibitory potency | > 30000 | O=C(O)c1ccc(N(Cc2cnc(C3CCCCC3)cn2)C(=O)[C@H]2CCN2S(=O)(=O)c2c(F)c(F)c(Cl)c(F)c2F)cc1O [Compound H186] |  |  |  |  |  |  |  |  |  |

— publication PMC9867837 (Cancer letters, 2022)
